Experimental findings from ChEMBL document CHEMBL3046173, “Synthesis, structure, anticancer, and antioxidant activity of para-xylyl linked bis-benzimidazolium salts and respective dinuclear Ag(I) N-heterocyclic carbene complexes (Part-II)” (Med Chem Res, 2013) are described below.

Assay [1] deals with Radical scavenging activity. The assay is described as follows: Antioxidant activity assessed as inhibition of DPPH free radicals at 400 uM after 30 min by microplate reader analysis relative to control. The format is functional. A general note: Loss of DPPH colour is used to gauge radical scavenging.
The subject of a further assay is HCT-116. Description: Cytotoxicity against Homo sapiens (human) HCT116 cells assessed as growth inhibition after 48 hr by MTT assay. Conditions: for IC50: HCT-116, 48 h. The format is functional, cell-based. A general note: Formazan colour is commonly taken as a measure of viable cells.

The inhibition is the change of the read-out against control, counted positive when it falls. One may read the IC50 as the concentration that gives 50% inhibition. `CCCCCCCCn1c[n+](Cc2ccc(C[n+]3cn(CCCCCCCC)c4ccccc43)cc2)c2ccccc21`: the inhibition in assay [1] came to 17.9%. Moreover, in the assay with HCT-116, the “growth inhibition (GI)” value was “Dose-dependent effect” and the IC50 was 0.9 µM.

`c1ccc2[nH]cnc2c1` [BENZIMIDAZOLE]: the inhibition in assay [1] is 21%. Moreover, in the assay on HCT-116, the “growth inhibition (GI)” value was “Dose-dependent effect” and the IC50 was above 200 µM.

For the compound `O=C(O)c1cc(O)c(O)c(O)c1`, the inhibition in assay [1] is 77.7%.

Regarding `CCCCCCCCCn1c[n+](Cc2ccc(C[n+]3cn(CCCCCCCCC)c4ccccc43)cc2)c2ccccc21`, the inhibition in assay [1] came out at 14.8%. In the assay on HCT-116, the “growth inhibition (GI)” value was “Dose-dependent effect” and the IC50 is 2.8 µM.

Turning to `CCCCCCCCCCn1c[n+](Cc2ccc(C[n+]3cn(CCCCCCCCCC)c4ccccc43)cc2)c2ccccc21`, in assay [1], the inhibition amounted to 13.7%. In the assay on HCT-116, the “growth inhibition (GI)” value is “Dose-dependent effect” and the IC50 was found to be 3.3 µM.

As to `O=c1[nH]cc(F)c(=O)[nH]1` [FLUOROURACIL], in the assay with HCT-116, the “growth inhibition (GI)” value was “Dose-dependent effect” and the IC50 amounted to 19.2 µM.
